The record followed here is ChEMBL document CHEMBL1201862, “PubChem BioAssay data set” (2004).

Among the test systems are SW-620; UACC-257; KM12; HCT-15; HCT-116; A498; OVCAR-5; RXF 393; SF-268; SNB-19; EKVX; SF-539; IGROV-1; SN12C; HOP-62; K562; RPMI-8226; SR.
Experiment in all cases: growth of human tumour cells (NCI), 48 h

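Step 1: Grow cells in 96-well plates. Step 2: Expose to compound for 48 hours at 5 concentrations. Step 3: Interpolate endpoints linearly; if unreached, use highest concentration. GI50: concentration for 50% inhibition of growth.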 Calls of active or inactive are those of the source. No stated cut-off is given here; in the data, active = GI50 up to about 1.1 µM and inactive = higher. Bounds are passed on as bounds.

In the case of `Cc1ccccc1C(C#N)C(=O)C(=O)Nc1nc([N+](=O)[O-])cs1` (centres undefined), the GI50 in the assay on SW-620 is > 100 µM (inactive); in the assay with UACC-257 it was > 100 µM (inactive); in the assay on KM12, > 100 µM (inactive); with HCT-15, above 100 µM; with HCT-116 it was > 100 µM (inactive); with A498, > 100 µM (inactive). Also, the GI50 in the assay with OVCAR-5, in the assay with RXF 393, with SF-268, in the assay with SNB-19, with EKVX and with SF-539 was > 100 µM (inactive) throughout. Moreover, the GI50 in the assay on IGROV-1, with SN12C and with HOP-62 was > 100 µM (inactive) each time.

Regarding `CC1=CCCC(OC(N)=O)C1` (centres undefined), the GI50 with SW-620 was > 100 µM (inactive); in the assay with UACC-257, > 100 µM (inactive); with KM12, > 100 µM (inactive); with HCT-15 it was above 100 µM; with HCT-116, > 100 µM (inactive); with A498 it was 32.4 µM (inactive). Moreover, the GI50 in the assay on OVCAR-5, with RXF 393, with SF-268, in the assay on SNB-19, in the assay on K562 and in the assay with EKVX was > 100 µM (inactive) throughout. For the same compound, the GI50 in the assay with SF-539, in the assay on IGROV-1, with SN12C, with HOP-62 and with RPMI-8226 was > 100 µM (inactive) throughout.

As to `CS(=O)(=O)c1ccc(-c2cc(-c3ccc(S(C)(=O)=O)cc3)[n+](-c3cc(-c4ccc(S(C)(=O)=O)cc4)c([O-])c(-c4ccc(S(C)(=O)=O)cc4)c3)c(-c3ccc(S(C)(=O)=O)cc3)c2)cc1`, the GI50 is > 100 µM (inactive) in the assay with SW-620; 56.5 µM (inactive) in the assay on UACC-257; > 100 µM (inactive) in the assay with KM12; above 100 µM in the assay with HCT-15; > 100 µM (inactive) in the assay on HCT-116; > 100 µM (inactive) in the assay with OVCAR-5. Further, the GI50 in the assay with RXF 393, in the assay with SF-268, in the assay on SNB-19, in the assay on K562, with SR and in the assay with SF-539 was > 100 µM (inactive) each time. The GI50 in the assay on IGROV-1, with SN12C, in the assay on HOP-62 and in the assay on RPMI-8226 was > 100 µM (inactive) throughout.

For `NC(=S)N/N=C1/CN(c2ccc(Cl)c(Cl)c2)CC(=O)C1c1nc2ccccc2s1` (centres undefined), the GI50 in the assay on SW-620 is > 100 µM (inactive); in the assay on UACC-257, 35.2 µM (inactive); with KM12 it was 42.9 µM (inactive); in the assay with HCT-15 it was above 100 µM; in the assay on HCT-116 it was 35.6 µM (inactive); with A498, > 100 µM (inactive). Also, the GI50 with OVCAR-5 is > 100 µM (inactive); in the assay on RXF 393, > 100 µM (inactive); in the assay on SF-268, 46.8 µM (inactive); in the assay with SNB-19, 56.8 µM (inactive); with K562 it was 43 µM (inactive); in the assay with EKVX, > 100 µM (inactive). In addition, the GI50 was 51.5 µM (inactive) with SF-539; > 100 µM (inactive) with IGROV-1; 95.7 µM (inactive) with SN12C; > 100 µM (inactive) in the assay on HOP-62; 79.1 µM (inactive) in the assay with RPMI-8226.

Turning to `COC(=O)CCC12CCC(=O)C1[C@@H](C(=O)OC)C[C@H]2C(=O)OC` (some centres undefined), the GI50 in the assay with SW-620 is > 100 µM (inactive); in the assay on UACC-257, > 100 µM (inactive); with KM12, > 100 µM (inactive); in the assay on HCT-15 it was above 100 µM; with HCT-116, > 100 µM (inactive); in the assay on A498, > 100 µM (inactive). Moreover, the GI50 in the assay on OVCAR-5, with RXF 393, in the assay with SF-268, in the assay on SNB-19, in the assay with K562 and in the assay with EKVX was > 100 µM (inactive) each time. Further, the GI50 with SF-539, in the assay on IGROV-1, in the assay with SN12C, with HOP-62 and in the assay on RPMI-8226 was > 100 µM (inactive) each time.

As to `O=C(O)C1(C(=O)O)CC1`, the GI50 is > 100 µM (inactive) in the assay with SW-620; > 100 µM (inactive) with UACC-257; > 100 µM (inactive) in the assay with KM12; above 100 µM in the assay with HCT-15; > 100 µM (inactive) in the assay with HCT-116; > 100 µM (inactive) in the assay with A498. The GI50 is 40 µM (inactive) in the assay on RXF 393; > 100 µM (inactive) in the assay on SF-268; > 100 µM (inactive) in the assay on SNB-19; > 100 µM (inactive) in the assay on K562; > 100 µM (inactive) in the assay on EKVX; > 100 µM (inactive) with SF-539. Also, the GI50 with IGROV-1, with SN12C, in the assay with HOP-62 and in the assay on RPMI-8226 was > 100 µM (inactive) in each case.

Consider `COc1cccc(N2C(=O)/C(=C/c3ccc(N(CCC#N)CCC#N)cc3)N=C2c2cc([N+](=O)[O-])ccc2Cl)c1`, for which the GI50 in the assay with SW-620 is 33.2 µM (inactive); in the assay on UACC-257, > 100 µM (inactive); in the assay with KM12, 49.5 µM (inactive); in the assay with HCT-15 it was 50.4 µM; in the assay with A498 it was > 100 µM (inactive); in the assay with OVCAR-5 it was 18.5 µM (inactive). Moreover, the GI50 in the assay on SF-268 is > 100 µM (inactive); in the assay on SNB-19, > 100 µM (inactive); with K562, 34.5 µM (inactive); with SR, 32.1 µM (inactive); with SF-539 it was > 100 µM (inactive); with IGROV-1, 50.7 µM (inactive). Further, the GI50 was 87.7 µM (inactive) with SN12C, 50.9 µM (inactive) in the assay with HOP-62 and 68.1 µM (inactive) with RPMI-8226.

With `C#CCN(N=O)C(=O)ON1C(=O)CCC1=O`, the GI50 with SW-620 is > 100 µM (inactive); with UACC-257, > 100 µM (inactive); in the assay on KM12 it was > 100 µM (inactive); in the assay on HCT-15, above 100 µM; with HCT-116 it was > 100 µM (inactive); in the assay with A498 it was > 100 µM (inactive). Further, the GI50 in the assay on OVCAR-5 was 61.8 µM (inactive); in the assay on RXF 393 it was > 100 µM (inactive); with SF-268, > 100 µM (inactive); with SNB-19, > 100 µM (inactive); in the assay with K562, > 100 µM (inactive); in the assay with EKVX, > 100 µM (inactive). Also, the GI50 in the assay with SF-539, in the assay with IGROV-1, in the assay with SN12C, in the assay on HOP-62 and with RPMI-8226 was > 100 µM (inactive) in each case.

As for `O=C1Nc2ccc(Cl)c(I)c2C1=O`, the GI50 is 19.5 µM (inactive) in the assay on SW-620; 17.9 µM (inactive) in the assay with UACC-257; 26.5 µM (inactive) in the assay on KM12; 20.9 µM in the assay on HCT-15; 15.2 µM (inactive) in the assay on HCT-116; 19.7 µM (inactive) in the assay on OVCAR-5. Besides, the GI50 with RXF 393 is 16.3 µM (inactive); in the assay on SF-268 it was 17.4 µM (inactive); in the assay on SNB-19, 24.5 µM (inactive); with K562, 22.3 µM (inactive); in the assay with SR, 22 µM (inactive); in the assay with EKVX, 5.62 µM (inactive). Further, the GI50 is 17.1 µM (inactive) in the assay with IGROV-1, 17.2 µM (inactive) in the assay on SN12C, 19.5 µM (inactive) in the assay with HOP-62 and > 10 µM (inactive) with RPMI-8226.

On to `CCOC(=O)C1C2CCC(C2)C1(CCl)C(=O)OCC` (centres undefined), for which the GI50 was > 100 µM (inactive) in the assay with SW-620; > 100 µM (inactive) in the assay on UACC-257; above 100 µM with HCT-15; > 100 µM (inactive) with HCT-116; > 100 µM (inactive) in the assay with A498; > 100 µM (inactive) with OVCAR-5. Besides, the GI50 with SF-268, in the assay with SNB-19, with K562, with SR, with IGROV-1 and with SN12C was > 100 µM (inactive) each time. Further, the GI50 in the assay on HOP-62 and in the assay with RPMI-8226 was > 100 µM (inactive) in each case.

For `Oc1ccc(O)c(-n2cccn2)c1-n1cccn1`, the GI50 with SW-620 was 44.6 µM (inactive); in the assay on KM12, > 100 µM (inactive); in the assay on HCT-15 it was above 100 µM; with A498 it was > 100 µM (inactive); in the assay on OVCAR-5, > 100 µM (inactive); in the assay on RXF 393, > 100 µM (inactive). Besides, the GI50 is > 100 µM (inactive) with SF-268; > 100 µM (inactive) with SNB-19; 36.8 µM (inactive) in the assay on K562; > 100 µM (inactive) in the assay with EKVX; > 100 µM (inactive) in the assay with SF-539; > 100 µM (inactive) in the assay with IGROV-1. Also, the GI50 in the assay on SN12C, in the assay on HOP-62 and in the assay with RPMI-8226 was > 100 µM (inactive) throughout.

As for `COC1=CC(=O)C(Br)=CC1=O`, the GI50 was 23.2 µM (inactive) with SW-620; 17.3 µM (inactive) with UACC-257; 21.6 µM with HCT-15; > 10 µM (inactive) in the assay on OVCAR-5; 18.2 µM (inactive) in the assay on RXF 393; 18.6 µM (inactive) with SF-268. Also, the GI50 is 17.8 µM (inactive) in the assay on SNB-19; 3.06 µM (inactive) with K562; 25.1 µM (inactive) with EKVX; 17.3 µM (inactive) in the assay on IGROV-1; 18.5 µM (inactive) in the assay with SN12C; > 100 µM (inactive) with HOP-62. In addition, in the assay with RPMI-8226, the GI50 was 21.6 µM (inactive).

For `COc1cc(S(=O)(=O)Nc2ccc(-c3csc(N4C(=O)CSC4c4ccccc4O)n3)cc2)ccc1Cl` (centres undefined), the GI50 is 35.2 µM (inactive) in the assay on SW-620; 27.7 µM (inactive) with UACC-257; 38.4 µM (inactive) in the assay on KM12; 58.5 µM in the assay with HCT-15; 32.8 µM (inactive) in the assay with HCT-116; 79.6 µM (inactive) in the assay with OVCAR-5. In addition, the GI50 in the assay on SF-268 is 44.8 µM (inactive); with SNB-19, 57.9 µM (inactive); in the assay with K562, 34.8 µM (inactive); in the assay on SR, 54.8 µM (inactive); with EKVX, 25.4 µM (inactive); in the assay on SF-539 it was 34.8 µM (inactive). The GI50 with IGROV-1 was 46.3 µM (inactive); in the assay with SN12C, 92 µM (inactive); in the assay with HOP-62, 85.7 µM (inactive); in the assay with RPMI-8226, 60.5 µM (inactive).
